Laboratory results from patent US11110149B2, “Method for predicting and monitoring the efficacy of low-dose IL-2 and hydroxychloroquine therapy in autoimmune diseases and its long-term use in autoimmune-related conditions” (KSL BIOMEDICAL INC., priority 2019, dated 2021).

Columns and labels:
[1] = system: SLE and/or pSS; assay: Double-blinded trial of IL-2 plus HCZ regimen: tolerability; assay type: in vivo, human; conditions: 1 million IU IL-2 SC every other day and HCZ 200 mg Bid PO every day
[2] = system: Sjögren patients; conditions: 120 Sjögren patients, vs placebo, after 6 months of therapy; cited from earlier work
[3] = system: lupus patients; conditions: systematic review, high level of evidence; cited from earlier work

Q: Which Tolerability of regimen [1] does the source give for `CCN(CCO)CCCC(C)Nc1ccnc2cc(Cl)ccc12` (stereo not shown) [hydroxychloroquine] here?
A: The Tolerability of regimen was “well tolerated”.

Q: What about the “Primary symptoms of dryness, pain, or fatigue” value [2] of the same compound?
A: Its value is “no significant improvement”.

Q: And the “Decrease of mortality rates in lupus patients” value [3]?
A: The value was “at least 50%”.

Q: What about the Lupus flares [3] of the same compound?
A: Its Lupus flares is “decreases lupus flares”.
